US20120264735A1 (priority 2009, published 2012)

Biological target: T1, c-Met kinase (recombinant c-Met) (Homo sapiens, UniProt P08581)
T1 construct: 0.27 nM recombinant c-Met
Experiment: In vitro kinase assay I (homogeneous time-resolved fluorescence tyrosine kinase assay)
Format: biochemical
Outline: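 Biotinylated peptide (0.5 μM) phosphorylated by 0.2 nM recombinant c-Met with 50 μM MgATP, 60 min at room temperature, pH 7.4, 5% DMSO. EDTA stop; HTRF read with Eu-anti-phosphotyrosine antibody and streptavidin-APC. IC50 from 4-parameter logistic fit.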

T1 sequence (P08581 25-1390): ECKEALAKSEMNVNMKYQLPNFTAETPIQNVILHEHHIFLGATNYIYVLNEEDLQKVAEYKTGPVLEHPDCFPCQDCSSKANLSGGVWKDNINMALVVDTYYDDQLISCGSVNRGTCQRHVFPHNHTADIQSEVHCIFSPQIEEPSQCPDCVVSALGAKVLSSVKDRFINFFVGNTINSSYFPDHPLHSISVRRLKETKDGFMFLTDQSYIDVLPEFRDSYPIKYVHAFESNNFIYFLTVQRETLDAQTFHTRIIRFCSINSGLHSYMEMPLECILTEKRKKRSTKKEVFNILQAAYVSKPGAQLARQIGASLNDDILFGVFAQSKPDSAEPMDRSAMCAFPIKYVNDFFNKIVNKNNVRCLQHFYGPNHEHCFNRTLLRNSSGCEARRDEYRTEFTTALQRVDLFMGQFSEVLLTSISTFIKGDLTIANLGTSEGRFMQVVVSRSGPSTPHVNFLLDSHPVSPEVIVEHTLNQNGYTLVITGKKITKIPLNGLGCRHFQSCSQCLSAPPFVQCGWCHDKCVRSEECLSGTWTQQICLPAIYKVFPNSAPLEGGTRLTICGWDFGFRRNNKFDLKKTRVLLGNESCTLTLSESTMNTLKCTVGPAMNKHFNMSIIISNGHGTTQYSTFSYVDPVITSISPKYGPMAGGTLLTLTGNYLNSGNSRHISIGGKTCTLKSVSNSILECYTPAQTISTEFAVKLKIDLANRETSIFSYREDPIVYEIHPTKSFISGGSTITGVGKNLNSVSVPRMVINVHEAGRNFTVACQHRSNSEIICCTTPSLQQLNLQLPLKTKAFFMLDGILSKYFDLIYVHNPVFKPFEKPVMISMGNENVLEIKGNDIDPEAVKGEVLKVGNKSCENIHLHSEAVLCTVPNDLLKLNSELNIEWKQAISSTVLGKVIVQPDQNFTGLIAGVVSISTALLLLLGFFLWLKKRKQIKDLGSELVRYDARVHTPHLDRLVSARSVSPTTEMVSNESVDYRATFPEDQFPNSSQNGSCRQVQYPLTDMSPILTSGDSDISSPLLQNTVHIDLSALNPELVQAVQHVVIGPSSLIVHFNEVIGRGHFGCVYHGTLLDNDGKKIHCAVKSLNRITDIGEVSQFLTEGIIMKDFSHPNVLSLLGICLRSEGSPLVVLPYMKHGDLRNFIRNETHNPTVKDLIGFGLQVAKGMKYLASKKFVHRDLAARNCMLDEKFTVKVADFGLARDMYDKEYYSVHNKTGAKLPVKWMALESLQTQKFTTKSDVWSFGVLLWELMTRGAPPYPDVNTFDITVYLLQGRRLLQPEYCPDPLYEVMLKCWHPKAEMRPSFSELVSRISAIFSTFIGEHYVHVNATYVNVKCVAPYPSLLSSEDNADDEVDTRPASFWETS

Compound	IC50
Cc1nc(-c2cccc(C(C)c3nn(-c4cnn(C)c4)ccc3=O)c2)ncc1F (single isomer, unassigned) [Example 693, 3-{(1R or S)-1-[3-(5-fluoro-4-methylpyrimidin-2-yl)phenyl]ethyl}-1}-1-(1-methyl-1H-pyrazol-4-yl)pyridazin-4(1H)-one]	100 to 1000 nM
CC(c1cccc(-c2nccc(C(C)(C)O)n2)c1)c1nn(-c2cnn(C)c2)ccc1=O (single isomer, unassigned) [Example 694, 3-[(1R or S)-1-{3-[4-(2-hydroxypropan-2-yl)pyrimidin-2-yl]phenyl}ethyl]-1-(1-methyl-1H-pyrazol-4-yl)pyridazin-4(1H)-one]	100 to 1000 nM
COCCNc1ccnc(-c2cccc(C(C)c3nn(-c4cnn(C)c4)ccc3=O)c2)n1 (single isomer, unassigned) [Example 695, 3-[(1R or S)-1-(3-{4-[(2-Methoxyethyl)amino]pyrimidin-2-yl}phenyl)ethyl]-1-(1-methyl-1H-pyrazol-4-yl)pyridazin-4(1H)-one]	100 to 1000 nM
CCOC(=O)Nc1cccc(Cc2nn(-c3cnn(C)c3)ccc2=O)c1 [Example 1, Ethyl(3-{[1-(1-methyl-1H-pyrazol-4-yl)-4-oxo-1,4-dihydropyridazin-3-yl]methyl}phenyl)carbamate]	< 100 nM
CCOC(=O)Nc1cccc(Cc2nn(-c3cc(F)c(F)c(F)c3)ccc2=O)c1 [Example 2, Ethyl(3-{[4-oxo-1-(3,4,5-trifluorophenyl)-1,4-dihydropyridazin-3-yl]methyl}phenyl)carbamate]	< 100 nM
CCOc1cnc(-c2cccc(Cc3nn(-c4cnn(C)c4)ccc3=O)c2)nc1 [Example 3, 3-[3-(5-Ethoxypyrimidin-2-yl)benzyl]-1-(1-methyl-1H-pyrazol-4-yl)pyridazin-4(1H)-one]	< 100 nM
COCCOc1cnc(-c2cccc(Cc3nn(-c4cnn(C)c4)ccc3=O)c2)nc1 [Example 4, 3-{3-[5-(2-Methoxyethoxy)pyrimidin-2-yl]benzyl}-1-(1-methyl-1H-pyrazol-4-yl)pyridazin-4(1H)-one]	< 100 nM
COc1cnc(-c2cccc(Cc3nn(-c4cnn(C)c4)ccc3=O)c2)nc1 [Example 5, 3-[3-(5-Methoxypyrimidin-2-yl)benzyl]-1-(1-methyl-1H-pyrazol-4-yl)pyridazin-4(1H)-one]	< 100 nM
CC(C)(O)COc1cnc(-c2cccc(Cc3nn(-c4cc(F)cc(C#N)c4)ccc3=O)c2)nc1 [Example 6, 3-Fluoro-5-[3-{3-[5-(2-hydroxy-2-methylpropoxy)pyrimidin-2-yl]benzyl}-4-oxopyridazin-1(4H)-yl]benzonitrile]	< 100 nM
CC(C)COC(=O)Nc1cccc(Cc2nn(-c3cc(F)c(F)c(F)c3)ccc2=O)c1 [Example 7, 2-methylpropyl (3-{[4-oxo-1-(3,4,5-trifluorophenyl)-1,4-dihydropyridazin-3-yl]methyl}phenyl)carbamate]	< 100 nM
CCCOC(=O)Nc1cccc(Cc2nn(-c3cc(F)c(F)c(F)c3)ccc2=O)c1 [Example 8, propyl (3-{[4-oxo-1-(3,4,5-trifluorophenyl)-1,4-dihydropyridazin-3-yl]methyl}phenyl)carbamate]	< 100 nM
COc1cnc(-c2cccc(Cc3nn(-c4cc(F)c(F)c(F)c4)ccc3=O)c2)nc1 [Example 9, 3-[3-(5-methoxypyrimidin-2-yl)benzyl]-1-(3,4,5-trifluorophenyl)pyridazin-4(1H)-one]	< 100 nM
O=c1ccn(-c2cc(F)c(F)c(F)c2)nc1Cc1ccc2ncnn2c1 [Example 10, 3-([1,2,4]triazolo[1,5-a]pyridin-6-ylmethyl)-1-(3,4,5-trifluorophenyl)pyridazin-4(1H)-one]	1000 to 3000 nM
CCOC(=O)Nc1cccc(Cc2nn(-c3cc(F)cc(F)c3)ccc2=O)c1 [Example 11, ethyl (3-{[1-(3,5-difluorophenyl)-4-oxo-1,4-dihydropyridazin-3-yl]methyl}phenyl)carbamate]	< 100 nM
CCCOC(=O)Nc1cccc(Cc2nn(-c3cccc(Br)c3)ccc2=O)c1 [Example 12, propyl (3-{[1-(3-bromophenyl)-4-oxo-1,4-dihydropyridazin-3-yl]methyl}phenyl)carbamate]	< 100 nM
CCOC(=O)Nc1cccc(Cc2nn(-c3cccc(Br)c3)ccc2=O)c1 [Example 13, ethyl (3-{[1-(3-bromophenyl)-4-oxo-1,4-dihydropyridazin-3-yl]methyl}phenyl)carbamate]	< 100 nM
CCCOC(=O)Nc1cccc(Cc2nn(-c3ccc(Br)cc3)ccc2=O)c1 [Example 14, propyl (3-{[1-(4-bromophenyl)-4-oxo-1,4-dihydropyridazin-3-yl]methyl}phenyl)carbamate]	< 100 nM
COC(=O)c1cnc(-c2cccc(Cc3nn(-c4cnn(C)c4)ccc3=O)c2)nc1 [Example 15, methyl 2-(3-{[1-(1-methyl-1H-pyrazol-4-yl)-4-oxo-1,4-dihydropyridazin-3-yl]methyl}phenyl)pyrimidine-5-carboxylate]	< 100 nM
CCCOC(=O)Nc1cccc(Cc2nn(-c3cc(F)c(Br)c(F)c3)ccc2=O)c1 [Example 16, propyl (3-{[1-(4-bromo-3,5-difluorophenyl)-4-oxo-1,4-dihydropyridazin-3-yl]methyl}phenyl)carbamate]	< 100 nM

Compound	IC50
CC(C)COC(=O)Nc1cccc(Cc2nn(-c3cc(F)cc(F)c3)ccc2=O)c1 [Example 17, 2-methylpropyl (3-{[1-(3,5-difluorophenyl)-4-oxo-1,4-dihydropyridazin-3-yl]methyl}phenyl)carbamate]	< 100 nM
CCOC(=O)Nc1cccc(Cc2nn(-c3ccc(Br)cc3)ccc2=O)c1 [Example 18, ethyl (3-{[1-(4-bromophenyl)-4-oxo-1,4-dihydropyridazin-3-yl]methyl}phenyl)carbamate]	< 100 nM
Cc1cnc(-c2cccc(Cc3nn(-c4cnn(C)c4)ccc3=O)c2)s1 [Example 19, 1-(1-methyl-1H-pyrazol-4-yl)-3-[3-(5-methyl-1,3-thiazol-2-yl)benzyl]pyridazin-4(1H)-one]	< 100 nM
Cn1cc(-n2ccc(=O)c(Cc3cccc(-c4nccs4)c3)n2)cn1 [Example 20, 1-(1-methyl-1H-pyrazol-4-yl)-3-[3-(1,3-thiazol-2-yl)benzyl]pyridazin-4(1H)-one]	100 to 1000 nM
Cn1cc(-n2ccc(=O)c(Cc3cccc(-n4cccn4)c3)n2)cn1 [Example 21, 1-(1-methyl-1H-pyrazol-4-yl)-3-[3-(1H-pyrazol-1-yl)benzyl]pyridazin-4(1H)-one]	1000 to 3000 nM
O=C(Nc1cccc(Cc2nn(-c3ccc(F)c(F)c3)ccc2=O)c1)OCCN1CCOCC1 [Example 22, 2-morpholin-4-ylethyl (3-{[1-(3,4-difluorophenyl)-4-oxo-1,4-dihydropyridazin-3-yl]methyl}phenyl)carbamate]	< 100 nM
Cn1cc(-n2ccc(=O)c(Cc3ccc4[nH]c(=O)[nH]c4c3)n2)cn1 [Example 23, 5-{[1-(1-methyl-1H-pyrazol-4-yl)-4-oxo-1,4-dihydropyridazin-3-yl]methyl}-1,3-dihydro-2H-benzimidazol-2-one]	100 to 1000 nM
Cn1cc(-n2ccc(=O)c(Cc3ccc4oc(=O)[nH]c4c3)n2)cn1 [Example 24, 5-{[1-(1-methyl-1H-pyrazol-4-yl)-4-oxo-1,4-dihydropyridazin-3-yl]methyl}-1,3-benzoxazol-2(3H)-one]	1000 to 3000 nM
CCOC(=O)Nc1cccc(Cc2nn(-c3ccn(C)n3)ccc2=O)c1 [Example 25, ethyl (3-{[1-(1-methyl-1H-pyrazol-3-yl)-4-oxo-1,4-dihydropyridazin-3-yl]methyl}phenyl)carbamate]	100 to 1000 nM
CC(C)COC(=O)Nc1cccc(Cc2nn(-c3ccn(C)n3)ccc2=O)c1 [Example 26, 2-methylpropyl (3-{[1-(1-methyl-1H-pyrazol-3-yl)-4-oxo-1,4-dihydropyridazin-3-yl]methyl}phenyl)carbamate]	< 100 nM
CCCOC(=O)Nc1cccc(Cc2nn(-c3ccn(C)n3)ccc2=O)c1 [Example 27, propyl (3-{[1-(1-methyl-1H-pyrazol-3-yl)-4-oxo-1,4-dihydropyridazin-3-yl]methyl}phenyl)carbamate]	100 to 1000 nM
CCCOC(=O)Nc1cccc(Cc2nn(-c3cccnc3)ccc2=O)c1 [Example 28, propyl {3-[(4-oxo-1-pyridin-3-yl-1,4-dihydropyridazin-3-yl)methyl]phenyl}carbamate]	< 100 nM
O=c1ccn(-c2cccnc2)nc1Cc1cccc(-c2ncccn2)c1 [Example 29, 1-pyridin-3-yl-3-(3-pyrimidin-2-ylbenzyl)pyridazin-4(1H)-one]	100 to 1000 nM
CCCOC(=O)Nc1cccc(Cc2nn(-c3ccncc3)ccc2=O)c1 [Example 30, propyl {3-[(4-oxo-1-pyridin-4-yl-1,4-dihydropyridazin-3-yl)methyl]phenyl}carbamate]	< 100 nM
CCOC(=O)Nc1cccc(Cc2nn(-c3ccc(OC)nc3)ccc2=O)c1 [Example 31, ethyl (3-{[1-(6-methoxypyridin-3-yl)-4-oxo-1,4-dihydropyridazin-3-yl]methyl}phenyl)carbamate]	< 100 nM
CCCOC(=O)Nc1cccc(Cc2nn(-c3ccc(OC)nc3)ccc2=O)c1 [Example 32, propyl (3-{[1-(6-methoxypyridin-3-yl)-4-oxo-1,4-dihydropyridazin-3-yl]methyl}phenyl)carbamate]	< 100 nM
COc1cnc(-c2cccc(Cc3nn(-c4ccc(OC)nc4)ccc3=O)c2)nc1 [Example 33, 1-(6-methoxypyridin-3-yl)-3-[3-(5-methoxypyrimidin-2-yl)benzyl]pyridazin-4(1H)-one]	< 100 nM
CCOC(=O)Nc1cccc(Cc2nn(-c3cncc(F)c3)ccc2=O)c1 [Example 34, ethyl (3-{[1-(5-fluoropyridin-3-yl)-4-oxo-1,4-dihydropyridazin-3-yl]methyl}phenyl)carbamate]	< 100 nM
CCCOC(=O)Nc1cccc(Cc2nn(-c3cncc(F)c3)ccc2=O)c1 [Example 35, propyl (3-{[1-(5-fluoropyridin-3-yl)-4-oxo-1,4-dihydropyridazin-3-yl]methyl}phenyl)carbamate]	< 100 nM
